What is called MIC is the smallest concentration in the dilution series that meets the test's criterion for growth inhibition.

These results are taken from ChEMBL document CHEMBL4665836, “Overcoming β-Lactam resistance in Pseudomonas aeruginosa using non-canonical tobramycin-based antibiotic adjuvants” (2020).

Common to all, as to assay type: functional
Assay [1] relates to Pseudomonas aeruginosa. Put plainly: Potentiation of ceftazidime-induced antibacterial activity against carbapenem-resistant Pseudomonas aeruginosa PAO200 harboring and mexAB-oprM efflux deficient mutant assessed as ceftazidime MIC at 8.7 uM by checkerboard assay (reference value: 1 ug/ml).
The test system of assay [2] is Pseudomonas aeruginosa. The assay is described as follows: Potentiation of ceftazidime-induced antibacterial activity against carbapenem and colistin-resistant Pseudomonas aeruginosa 101243 clinical isolate assessed as ceftazidime MIC at 8.7 uM by checkerboard assay (reference value: 64 ug/ml).
The test system of assay [3] is Pseudomonas aeruginosa. Put plainly: Potentiation of ceftazidime-induced antibacterial activity against carbapenem and colistin-resistant Pseudomonas aeruginosa 91433 clinical isolate assessed as ceftazidime MIC at 8.7 uM by checkerboard assay (reference value: 4 ug/ml).
Assay [4] relates to Pseudomonas aeruginosa. Put plainly: Potentiation of ceftazidime-induced antibacterial activity against wild-type Pseudomonas aeruginosa PAO1 assessed as ceftazidime MIC at 8.7 uM by checkerboard assay (reference value: 2 ug/ml).
For assay [5], the system named is Pseudomonas aeruginosa. The assay is described as follows: Potentiation of aztreonam-induced antibacterial activity against carbapenem-resistant Pseudomonas aeruginosa 109084 clinical isolate assessed as aztreonam MIC at 8.7 uM by checkerboard assay (reference value: 64 ug/ml).
The subject of assay [6] is Pseudomonas aeruginosa. Put plainly: Potentiation of aztreonam-induced antibacterial activity against carbapenem-resistant Pseudomonas aeruginosa 107092 clinical isolate assessed as aztreonam MIC at 8.7 uM by checkerboard assay (reference value: 64 ug/ml).
In assay [7] the test system is Pseudomonas aeruginosa. Put plainly: Potentiation of aztreonam-induced antibacterial activity against carbapenem-resistant Pseudomonas aeruginosa 86052 clinical isolate assessed as aztreonam MIC at 8.7 uM by checkerboard assay (reference value: 64 ug/ml).
For assay [8], the system named is Pseudomonas aeruginosa. Put plainly: Potentiation of aztreonam-induced antibacterial activity against carbapenem and colistin-resistant Pseudomonas aeruginosa 114228 clinical isolate assessed as aztreonam MIC at 8.7 uM by checkerboard assay (reference value: 32 ug/ml).
Assay [9] deals with Pseudomonas aeruginosa. The assay is described as follows: Potentiation of aztreonam-induced antibacterial activity against carbapenem-resistant Pseudomonas aeruginosa 101885 clinical isolate assessed as aztreonam MIC at 8.7 uM by checkerboard assay (reference value: 16 ug/ml).
The test system of assay [10] is Pseudomonas aeruginosa. The assay is described as follows: Potentiation of aztreonam-induced antibacterial activity against carbapenem and colistin-resistant Pseudomonas aeruginosa 91433 clinical isolate assessed as aztreonam MIC at 8.7 uM by checkerboard assay (reference value: 16 ug/ml).
For assay [11], the system named is Pseudomonas aeruginosa. The assay is described as follows: Potentiation of aztreonam-induced antibacterial activity against carbapenem-resistant Pseudomonas aeruginosa 262-101856 clinical isolate assessed as aztreonam MIC at 8.7 uM by checkerboard assay (reference value: 32 ug/ml).
In assay [12] the test system is Pseudomonas aeruginosa. The assay is described as follows: Potentiation of aztreonam-induced antibacterial activity against wild-type Pseudomonas aeruginosa PAO1 assessed as aztreonam MIC at 8.7 uM by checkerboard assay (reference value: 4 ug/ml).

`NC[C@H]1O[C@H](O[C@H]2[C@H](OCCCCCCCCN3CCCNCCNCCCNCC3)[C@@H](O[C@H]3O[C@H](CO)[C@@H](O)[C@H](N)[C@H]3O)[C@H](N)C[C@@H]2N)[C@H](N)C[C@@H]1O.O=C(O)C(F)(F)F.O=C(O)C(F)(F)F.O=C(O)C(F)(F)F.O=C(O)C(F)(F)F.O=C(O)C(F)(F)F.O=C(O)C(F)(F)F.O=C(O)C(F)(F)F.O=C(O)C(F)(F)F.O=C(O)C(F)(F)F`: the MIC in the assay on Pseudomonas aeruginosa [1] is 0.06 µg/mL; with Pseudomonas aeruginosa [2], 8 µg/mL; in the assay on Pseudomonas aeruginosa [3], 2 µg/mL; with Pseudomonas aeruginosa [4], 0.25 µg/mL; in the assay on Pseudomonas aeruginosa [5], 8 µg/mL; with Pseudomonas aeruginosa [6], 16 µg/mL. The MIC amounted to 16 µg/mL with Pseudomonas aeruginosa [7]; 4 µg/mL with Pseudomonas aeruginosa [8]; 0.5 µg/mL in the assay on Pseudomonas aeruginosa [9]; 16 µg/mL with Pseudomonas aeruginosa [10]; 8 µg/mL with Pseudomonas aeruginosa [11]; 0.25 µg/mL in the assay on Pseudomonas aeruginosa [12].
